Data from ChEMBL document CHEMBL1201862, “PubChem BioAssay data set” (2004).
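Following 48 hours of exposure in 96-well plates, responses at five concentrations were used to interpolate endpoints linearly. Here, GI50 denotes the concentration required for 50% inhibition of growth.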 Calls of active or inactive are those of the source. Cut-off read from the data, not from the text of the source: active = GI50 up to about 1.1 µM and inactive = higher.

Assays:
Experiment in all cases: inhibition of tumour cell growth, NCI panel, 48 h
HCT-116 = system: HCT-116
SNB-19 = system: SNB-19
MDA-MB-435 = system: MDA-MB-435
PC-3 = system: PC-3
SW-620 = system: SW-620
MCF7 = system: MCF7
COLO 205 = system: COLO 205
NCI-H460 = system: NCI-H460
UO-31 = system: UO-31
HL-60 = system: HL-60
SF-268 = system: SF-268
RPMI-8226 = system: RPMI-8226
OVCAR-4 = system: OVCAR-4
MDA-MB-231 = system: MDA-MB-231
SN12C = system: SN12C
Malme-3M = system: Malme-3M
SK-MEL-2 = system: SK-MEL-2
OVCAR-3 = system: OVCAR-3
786-0 = system: 786-0
UACC-257 = system: UACC-257
DU-145 = system: DU-145
SR = system: SR
RXF 393 = system: RXF 393
EKVX = system: EKVX
UACC-62 = system: UACC-62
SF-539 = system: SF-539
SNB-75 = system: SNB-75
SK-MEL-5 = system: SK-MEL-5
A549 = system: A549
HCT-15 = system: HCT-15
OVCAR-8 = system: OVCAR-8
Hs-578T = system: Hs-578T
OVCAR-5 = system: OVCAR-5
K562 = system: K562
NCI-H522 = system: NCI-H522
BT-549 = system: BT-549
HT-29 = system: HT-29
TK-10 = system: TK-10
T47D = system: T47D
A498 = system: A498
NCI-H23 = system: NCI-H23
U-251 = system: U-251
HCC 2998 = system: HCC 2998
SK-MEL-28 = system: SK-MEL-28
MDA-N = system: MDA-N
IGROV-1 = system: IGROV-1
ACHN = system: ACHN
LOX IMVI = system: LOX IMVI
NCI/ADR-RES = system: NCI/ADR-RES
CAKI-1 = system: CAKI-1
SK-OV-3 = system: SK-OV-3
KM12 = system: KM12
MOLT-4 = system: MOLT-4
SF-295 = system: SF-295
CCRF-CEM = system: CCRF-CEM
HOP-92 = system: HOP-92
NCI-H226 = system: NCI-H226
M14 = system: M14
HOP-62 = system: HOP-62
SNB-78 = system: SNB-78
M19-MEL = system: M19-MEL
KM-20L2 = system: KM-20L2
DMS-114 = system: DMS-114

With `CN(C)CCNc1ccc(C(=O)NCCCN(C)CCCNC(=O)c2ccc(NCCN(C)C)c3c(=O)c4ccccc4[nH]c23)c2[nH]c3ccccc3c(=O)c12` the GI50 (HCT-116) was < 0.01 µM (active), the GI50 (SNB-19) was < 0.0118 µM (active) and the GI50 (MDA-MB-435) was 32 nM (active). For the same compound, the GI50 (PC-3) was 78.3 nM (active), the GI50 (SW-620) was < 0.0113 µM (active) and the GI50 (MCF7) was < 10 nM (active). For the same compound, the GI50 (COLO 205) was 0.0163 µM (active), the GI50 (NCI-H460) was < 16.3 nM (active) and the GI50 (UO-31) was 1.27 µM (inactive). For the same compound, the GI50 (HL-60) was 0.155 µM (active), the GI50 (SF-268) was < 0.01 µM (active) and the GI50 (RPMI-8226) was < 0.01 µM (active). The GI50 (OVCAR-4) was 0.0322 µM (active), the GI50 (MDA-MB-231) was 24 nM (active) and the GI50 (SN12C) was < 0.01 µM (active). For the same compound, the GI50 (Malme-3M) was 0.0467 µM (active), the GI50 (SK-MEL-2) was 0.0489 µM (active) and the GI50 (OVCAR-3) was 0.469 µM (active). The GI50 (786-0) was < 0.0119 µM (active), the GI50 (UACC-257) was 0.968 µM (active) and the GI50 (DU-145) was < 13.4 nM (active). For the same compound, the GI50 (SR) was < 0.01 µM (active), the GI50 (RXF 393) was 0.0809 µM (active) and the GI50 (EKVX) was 0.478 µM (active). For the same compound, the GI50 (UACC-62) was 34.9 nM (active), the GI50 (SF-539) was < 0.01 µM (active) and the GI50 (SNB-75) was < 0.01 µM (active). The GI50 (SK-MEL-5) was 146 nM (active), the GI50 (A549) was < 0.01 µM (active) and the GI50 (HCT-15) was 3.81 µM. For the same compound, the GI50 (OVCAR-8) was 0.0272 µM (active), the GI50 (Hs-578T) was < 34.7 nM (active) and the GI50 (OVCAR-5) was 0.0458 µM (active). For the same compound, the GI50 (K562) was 0.0332 µM (active), the GI50 (NCI-H522) was < 0.01 µM (active) and the GI50 (BT-549) was 144 nM (active). For the same compound, the GI50 (HT-29) was < 10 nM (active), the GI50 (TK-10) was 0.828 µM (active) and the GI50 (T47D) was 119 nM (active). The GI50 (A498) was 0.105 µM (active), the GI50 (NCI-H23) was 0.0489 µM (active) and the GI50 (U-251) was < 0.01 µM (active). For the same compound, the GI50 (HCC 2998) was 0.0246 µM (active), the GI50 (SK-MEL-28) was 0.109 µM (active) and the GI50 (MDA-N) was 34.6 nM (active). For the same compound, the GI50 (IGROV-1) was < 0.01 µM (active), the GI50 (ACHN) was 0.0402 µM (active) and the GI50 (LOX IMVI) was < 0.01 µM (active). For the same compound, the GI50 (NCI/ADR-RES) was 5.08 µM (inactive), the GI50 (CAKI-1) was 5.6 µM (inactive) and the GI50 (SK-OV-3) was 0.109 µM (active). For the same compound, the GI50 (KM12) was 0.0333 µM (active), the GI50 (MOLT-4) was < 0.01 µM (active) and the GI50 (SF-295) was 0.0328 µM (active). The GI50 (CCRF-CEM) was < 0.01 µM (active), the GI50 (HOP-92) was 72.4 nM (active) and the GI50 (NCI-H226) was 0.0199 µM (active). The GI50 (M14) was 0.218 µM (active) and the GI50 (HOP-62) was < 0.0291 µM (active).
In the case of `CN(C)C(=S)/N=c1\ss/c(=N\C(=S)N(C)C)n1C1CCCCC1`, the GI50 (HCT-116) is reported as > 100 µM (inactive), the GI50 (SNB-19) is reported as 22 µM (inactive) and the GI50 (SW-620) is reported as > 100 µM (inactive). For the same compound, the GI50 (SNB-78) was 49.4 µM (inactive), the GI50 (COLO 205) was 30.8 µM (inactive) and the GI50 (NCI-H460) was 515 nM (active). The GI50 (UO-31) was > 100 µM (inactive), the GI50 (HL-60) was 69 µM (inactive) and the GI50 (M19-MEL) was 524 nM (active). For the same compound, the GI50 (KM-20L2) was > 100 µM (inactive), the GI50 (SF-268) was 44.9 µM (inactive) and the GI50 (RPMI-8226) was 25.5 µM (inactive). The GI50 (OVCAR-4) was 15.5 µM (inactive), the GI50 (SN12C) was > 100 µM (inactive) and the GI50 (Malme-3M) was > 100 µM (inactive). The GI50 (SK-MEL-2) was > 100 µM (inactive), the GI50 (OVCAR-3) was > 100 µM (inactive) and the GI50 (DMS-114) was 452 nM (active). For the same compound, the GI50 (786-0) was > 100 µM (inactive), the GI50 (UACC-257) was > 100 µM (inactive) and the GI50 (SR) was > 100 µM (inactive). The GI50 (RXF 393) was > 100 µM (inactive), the GI50 (EKVX) was > 100 µM (inactive) and the GI50 (UACC-62) was 1060 nM (active). For the same compound, the GI50 (SF-539) was > 100 µM (inactive), the GI50 (SNB-75) was 76.4 µM (inactive) and the GI50 (SK-MEL-5) was 2290 nM (inactive). For the same compound, the GI50 (A549) was > 100 µM (inactive), the GI50 (HCT-15) was over 100 µM and the GI50 (OVCAR-8) was 84.3 µM (inactive). The GI50 (OVCAR-5) was > 100 µM (inactive), the GI50 (K562) was 28.1 µM (inactive) and the GI50 (NCI-H522) was 25.5 µM (inactive). The GI50 (HT-29) was 458 nM (active), the GI50 (TK-10) was > 100 µM (inactive) and the GI50 (A498) was > 100 µM (inactive). For the same compound, the GI50 (NCI-H23) was 63.2 µM (inactive), the GI50 (U-251) was 27.4 µM (inactive) and the GI50 (HCC 2998) was > 100 µM (inactive). For the same compound, the GI50 (SK-MEL-28) was > 100 µM (inactive), the GI50 (IGROV-1) was > 100 µM (inactive) and the GI50 (ACHN) was > 100 µM (inactive). For the same compound, the GI50 (LOX IMVI) was 86.3 µM (inactive), the GI50 (CAKI-1) was > 100 µM (inactive) and the GI50 (SK-OV-3) was > 100 µM (inactive). For the same compound, the GI50 (KM12) was > 100 µM (inactive), the GI50 (MOLT-4) was 80.2 µM (inactive) and the GI50 (SF-295) was > 100 µM (inactive). For the same compound, the GI50 (CCRF-CEM) was 32.7 µM (inactive), the GI50 (NCI-H226) was > 100 µM (inactive) and the GI50 (M14) was > 100 µM (inactive). The GI50 (HOP-62) was > 100 µM (inactive).
